Data as given in patent US10472326B2, “PQSR modulators” (HELMHOLTZ-ZENTRUM FÜR INFEKTIONSFORSCHUNG GMBH, priority 2014, dated 2019).
Entries after “also recorded” stand apart in the source; their conditions may differ. Read-outs that look alike come from different tables or passages of the source. Marks after values point to notes of the source that are not given here.

Columns and labels:
PqsR = target: T1, PqsR (Pseudomonas aeruginosa, UniProt Q9I4X0); experiment: cell-based; details: read-out: Inhibition of PqsR stimulation induced by 50 nM PQS in the presence of test compd. (full inhibition = 1.00)
T1 construct: expressed in transfected cells; host or cells: E. coli DH5α carrying plasmid pEAL08-2
Experimental: The ability of the compounds to either stimulate or antagonize the PqsR-dependent transcription was analysed as previously described using a β-galactosidase reporter gene assay in E. coli expressing PqsR. Briefly, a culture of E. coli DH5α cells containing the plasmid pEAL08-2, which encodes PqsR under the control of the tac promoter and the β-galactosidase reporter gene lacZ controlled by the pqsA promoter, were co-incubated with test compound. Antagonistic effects of compounds were assayed in the presence of 50 nM PQS. After incubation, β-galactosidase activity was measured spectralphotometrically at OD420 nm using POLARstar Omega (BMG Labtech, Ortenberg, Germany) and expressed as percent stimulation of controls. For the determination of IC50 values, compounds were tested at least at eight different concentrations.

P. aeruginosa biofilm = details: background statement; cited from earlier work
Pseudomonas aeruginosa [1] = details: cited from earlier work
P. aeruginosa infection [2] = details: cited from earlier work
P. aeruginosa infection [3] = details: cited from earlier work; remark: listed apart in the source
P. aeruginosa PA14 [4] = details: strain not given, cited from earlier work
P. aeruginosa PA14 [5] = details: in cellulo; ref. [20]; strain not given; read-out: IC50, inhibition of virulence factor pyocyanin production; cited from earlier work
P. aeruginosa PA14 [6] = experiment: Biofilm growth assay, PA14; type: cell-based; details: added to 24 h old biofilms, final concentration 100 μM
Experimental: Static biofilms at the bottom of 96 well microtiter plates were grown with small modifications as previously described. In brief, overnight P. aeruginosa LB cultures of PA14 were adjusted to an OD600 of 0.002 with fresh medium and transferred into a half-area 96 well μClear plate (Greiner Bio-One, 100 μL/well). The plate was covered with an air-permeable foil and incubated at 37° C. in a chamber with humid atmosphere. After 24 h, a staining solution including Syto9 and propidium iodide (LIVE/DEAD BacLight Bacterial Viability kit, Molecular Probes/Invitrogen) and the test compound solved in DMSO was added to the biofilms (final concentration 100 μM, 1% DMSO (v/v)) and biofilms were further incubated for 24 h at 37° C. After in total 48 h, biofilm stacks were acquired in the center of each well (step size: 3 μm) using an automated confocal microscope (TCS SP8, Leica Microsystems) equipped with an ×40/1.10 water objective. The acquired image stacks were processed and analyzed with a customized analysis solution for the Developer XD2 (Definiens) based on a previously described algorithm. 3D-projections of the biofilms are visualized with the software IMARIS (version 7.6.5, Bitplane).

P. aeruginosa PA14 [7] = experiment: Pyocyanin assay; type: cell-based; details: for Reduction of Pyocyanin: PA14
Experimental: For analysis of pyocyanin formation, cultivation procedure was the same as for HHQ determination with the exception of using PPGAS medium. Pyocyanin produced by PA14 was quantified using the method of Essar et al. with some modifications, as described in detail by Klein et al.. Briefly, 900 μL of each culture were extracted with 900 μL of chloroform and 800 μL of the organic phase re-extracted with 250 μL of 0.2 M HCl. OD520 was measured in the aqueous phase using FLUOstar Omega (BMG Labtech, Ortenberg, Germany). For each sample, cultivation and sample work-up were performed in triplicates. Inhibition values of pyocyanin formation were normalized to OD600.

clinical isolate MHH9639 = experiment: Biofilm growth assay, clinical isolate MHH9639; type: cell-based, P. aeruginosa; details: added to 24 h old biofilms, final concentration 100 μM
Pseudomonas aeruginosa [8] = details: cited from earlier work; remark: listed apart in the source
P. aeruginosa PA14 [9] = experiment: Determination of extracellular PQS levels; type: cell-based; details: compd. at 15 μM
Experimental: Quantification of PQS produced by P. aeruginosa PA14 was performed according to the method of Maurer et al.. For each sample, cultivation and sample work-up were performed in triplicates. Inhibition values of PQS formation were normalized to OD600.

T1 sequence (Q9I4X0 whole entry): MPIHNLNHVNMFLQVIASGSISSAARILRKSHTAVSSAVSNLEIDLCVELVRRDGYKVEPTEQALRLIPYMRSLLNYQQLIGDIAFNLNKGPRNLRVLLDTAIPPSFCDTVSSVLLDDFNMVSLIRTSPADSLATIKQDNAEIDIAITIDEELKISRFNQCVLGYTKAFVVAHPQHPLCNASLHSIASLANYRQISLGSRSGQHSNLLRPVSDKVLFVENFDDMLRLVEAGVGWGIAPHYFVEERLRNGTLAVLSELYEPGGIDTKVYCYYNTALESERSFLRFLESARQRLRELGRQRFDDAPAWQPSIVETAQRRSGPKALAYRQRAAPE

Structure (SMILES)	inhibition at 0.05 µM (PqsR)	inhibition at 5 µM (PqsR)	further results
CCCCCCCc1cc(=O)c2cnccc2[nH]1 [Ref. 9, 2-Heptyl-1,6-naphthyridin-4(1H)-one, reference compound]	8%	2%	
CCCCCCCc1[nH]c2ccc([N+](=O)[O-])cc2c(=O)c1C(=O)O [Compound 12, 2-heptyl-6-nitro-4-oxo-1,4-dihydroquinoline-3-carboxylic acid]	11%	34%	
CCCCCCCc1[nH]c2ccc([N+](=O)[O-])cc2c(=O)c1C(N)=O [2-heptyl-6-nitro-4-oxo-1,4-dihydroquinoline-3-carboxamide]			Inhibition of biofilm formation (P. aeruginosa biofilm): not being able to inhibit biofilm formation; Reduction of HHQ production (Pseudomonas aeruginosa [1]; at 15 μM, ref. [20]): 54%; Protection of larvae from lethal P. aeruginosa infection (P. aeruginosa infection [2]; at 22 nM corresponding to 7.3 ng g^−1 body weight, ref. [20]): full protection; Toxicity in animal model (P. aeruginosa infection [2]; in vivo): no sign of toxicity; Toxicity in animal model (P. aeruginosa infection [3]; in vivo): no sign of toxicity; Protection of nematodes from lethal P. aeruginosa infection (P. aeruginosa infection [3]; ref. [20]): strong protection; Reduction of PQS production (P. aeruginosa PA14 [4]; at 15 μM, ref. [20]): 37%; IC50 (P. aeruginosa PA14 [5]): 2000 nM
CCCCCCCc1[nH]c2ccc([N+](=O)[O-])cc2c(=O)c1C(=O)OCC [Compound 2, ethyl 2-heptyl-6-nitro-4-oxo-1,4-dihydroquinoline-3-carboxylate]	-8%	20%	
CCCCCCCc1[nH]c2ccncc2c(=O)c1C(=O)O [Compound 7, 2-heptyl-4-oxo-1,4-dihydro-1,6-naphthyridine-3-carboxylic acid]	6%	20%	
Nc1cccc(F)c1C(=O)O [Compound 6FABA]			IC50 (Pseudomonas aeruginosa [1]; PqsA inhibitor, refs [14, 16, 22], read-out: IC50, production of signal molecules HHQ and PQS): ~100 µM
CCCCCCCc1[nH]c2ccccc2c(=O)c1C(=O)OCC [Compound 4]	18%	32%	
CCCCCCCc1[nH]c2ccccc2c(=O)c1C(=O)NO [Compound 8]	15%	29%	Biofilm formation / biovolume of the biofilms (P. aeruginosa PA14 [6]): strongly inhibited; also recorded: markedly reduced; IC50 (P. aeruginosa PA14 [7]; Pseudomonas aeruginosa, PA14, read-out: IC50, production of the virulence factor pyocyanin): ~12 µM; Reduction of Pyocyanin (P. aeruginosa PA14 [7]; determined at 12.5 μM): 51^e %; Biofilm formation / biovolume of the biofilms (clinical isolate MHH9639): strongly inhibited; also recorded: markedly reduced
CCOCCCCc1[nH]c2ccc([N+](=O)[O-])cc2c(=O)c1C(=O)OCC [Compound 3]	2%	27%	
COC(=O)c1ccccc1N [methyl anthranilate]			PQS formation (P. aeruginosa PA14 [4]; at millimolar concentrations, ref. [12]): inhibit PQS formation; Production of the virulence factor elastase (Pseudomonas aeruginosa [8]): inhibit
CCCCCCCc1[nH]c2ccc([N+](=O)[O-])cc2c(=O)c1CO [Compound 1, 2-heptyl-3-(hydroxymethyl)-6-nitroquinolin-4(1H)-one]	45%	100%	Reduction of PQS (P. aeruginosa PA14 [9]): 33%; Reduction of Pyocyanin (P. aeruginosa PA14 [7]; compd. at 15 μM): 83%
CCCCCCCc1[nH]c2ccccc2c(=O)c1CO [Compound 6]	5%	28%	
CCCCCCCc1cc(=O)c2cc(C(F)(F)F)ccc2n1C [Ref. 1, 2-heptyl-1-methyl-6-(trifluoromethyl)quinolin-4(1H)-one, reference compound]	31%	100%	Reduction of PQS (P. aeruginosa PA14 [9]): 8.9%; Reduction of Pyocyanin (P. aeruginosa PA14 [7]; compd. at 15 μM): 58%
CCCCCOCc1cc(=O)c2cc(C(F)(F)F)ccc2[nH]1 [Ref. 4, 2-(Pentyloxymethyl)-6-(trifluoromethyl)quinolin-4(1H)-one, reference compound]	29%	100%	Reduction of PQS (P. aeruginosa PA14 [9]): 21%; Reduction of Pyocyanin (P. aeruginosa PA14 [7]; compd. at 15 μM): 29%
CCCCCCCc1[nH]c2ccccc2c(=O)c1[N+](=O)[O-] [Compound 9, 2-heptyl-3-nitroquinolin-4(1H)-one]	14%	17%	
CCCCCCCc1[nH]c2ccc([N+](=O)[O-])cc2c(=O)c1C(=O)NO [Compound 10, 2-heptyl-N-hydroxy-6-nitro-4-oxo-1,4-dihydroquinoline-3-carboxamide]	30%	78%	Reduction of Pyocyanin (P. aeruginosa PA14 [7]; determined at 12.5 μM): 57^e %
CCCCCCCc1[nH]c2ccncc2c(=O)c1C(=O)OCC [Compound 5]	24%	76%	
